According to PubChem BioAssay AID2060889 (Molecular Pharmacology Branch, DTP, NCI, 2025):

Test system: LG0567-F671-PDC complex spheroids viability
Assay: Anticancer human tumor LG0567-F671-PDC patient-derived lung adenocarcinoma cell line growth inhibition [RAS]
Details: for IC50: curve of first compound; for viability, T/C: stronger effect = lower value
Outline: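 Multi-cell-type spheroids: tumor cells plus HUVEC endothelial cells and mesenchymal stem cells. RAS-pathway inhibitors were combined with targeted agents, each dosed in half-log steps down from clinical Cmax, or from 10 microM when Cmax was unknown.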
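Also: spheroids exposed to compound for seven days before readout.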
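For IC50 in this document: luminescence signal used as a proxy for viable cells.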

`CCc1c2c(nc3ccc(O)cc13)-c1cc3c(c(=O)n1C2)COC(=O)[C@]3(O)CC` + C=CC(=O)N1CCN(c2nc(OCC3CCCN3C)nc3c(F)c(-c4nc(N)cc(C)c4C(F)(F)F)c(Cl)cc23)C(C)C1 was tested. Which IC50 (second compound 0.00316 µM) did it give?
Its IC50 is < 0.949 nM.

What about the IC50 (second compound 0.01 µM) of the same molecule?
The IC50 was < 0.949 nM.

What about the IC50 (second compound 0.0316 µM) of the same molecule?
The IC50 was < 0.949 nM.

And the IC50 (second compound 0.1 µM)?
The IC50 was < 0.949 nM.

And the IC50 (second compound 0.316 µM)?
The IC50 was < 0.949 nM.

And the IC50 (second compound 1 µM)?
Its IC50 is < 0.949 nM.

And the viability, T/C (second compound 0.00316 µM, first compound 0.000949 µM)?
The viability, T/C was 17.1%.

And the viability, T/C (second compound 0.00316 µM, first compound 0.003 µM)?
Its viability, T/C is 14.7%.

What about the viability, T/C (second compound 0.00316 µM, first compound 0.00949 µM) of the same molecule?
Its viability, T/C is 15%.

What about the viability, T/C (second compound 0.00316 µM, first compound 0.03 µM) of the same molecule?
The viability, T/C was 12.2%.

What about the viability, T/C (second compound 0.00316 µM, first compound 0.0949 µM) of the same molecule?
The viability, T/C was 7.62%.

And the viability, T/C (second compound 0.00316 µM, first compound 0.3 µM)?
Its viability, T/C is 4.2%.

What about the viability, T/C (second compound 0.01 µM, first compound 0.000949 µM) of the same molecule?
Its viability, T/C is 18%.

And the viability, T/C (second compound 0.01 µM, first compound 0.003 µM)?
The viability, T/C was 13.9%.

What about the viability, T/C (second compound 0.01 µM, first compound 0.00949 µM) of the same molecule?
Its viability, T/C is 12.2%.

And the viability, T/C (second compound 0.01 µM, first compound 0.03 µM)?
Its viability, T/C is 10.3%.

What about the viability, T/C (second compound 0.01 µM, first compound 0.0949 µM) of the same molecule?
The viability, T/C was 6.26%.

And the viability, T/C (second compound 0.01 µM, first compound 0.3 µM)?
The viability, T/C was 3.82%.

And the viability, T/C (second compound 0.0316 µM, first compound 0.000949 µM)?
Its viability, T/C is 14.9%.

What about the viability, T/C (second compound 0.0316 µM, first compound 0.003 µM) of the same molecule?
The viability, T/C was 11.9%.

And the viability, T/C (second compound 0.0316 µM, first compound 0.00949 µM)?
The viability, T/C was 14%.

What about the viability, T/C (second compound 0.0316 µM, first compound 0.03 µM) of the same molecule?
The viability, T/C was 8.57%.

What about the viability, T/C (second compound 0.0316 µM, first compound 0.0949 µM) of the same molecule?
The viability, T/C was 6.15%.

And the viability, T/C (second compound 0.0316 µM, first compound 0.3 µM)?
Its viability, T/C is 3.69%.

What about the viability, T/C (second compound 0.1 µM, first compound 0.000949 µM) of the same molecule?
The viability, T/C was 13.6%.

And the viability, T/C (second compound 0.1 µM, first compound 0.003 µM)?
The viability, T/C was 12.4%.

And the viability, T/C (second compound 0.1 µM, first compound 0.00949 µM)?
Its viability, T/C is 9.96%.

And the viability, T/C (second compound 0.1 µM, first compound 0.03 µM)?
Its viability, T/C is 9.55%.

And the viability, T/C (second compound 0.1 µM, first compound 0.0949 µM)?
The viability, T/C was 6.17%.

And the viability, T/C (second compound 0.1 µM, first compound 0.3 µM)?
Its viability, T/C is 2.99%.

And the viability, T/C (second compound 0.316 µM, first compound 0.000949 µM)?
The viability, T/C was 12.7%.

What about the viability, T/C (second compound 0.316 µM, first compound 0.003 µM) of the same molecule?
Its viability, T/C is 12.2%.

And the viability, T/C (second compound 0.316 µM, first compound 0.00949 µM)?
Its viability, T/C is 11.6%.

And the viability, T/C (second compound 0.316 µM, first compound 0.03 µM)?
The viability, T/C was 9.06%.

And the viability, T/C (second compound 0.316 µM, first compound 0.0949 µM)?
The viability, T/C was 6.73%.

And the viability, T/C (second compound 0.316 µM, first compound 0.3 µM)?
The viability, T/C was 3.59%.

What about the viability, T/C (second compound 1 µM, first compound 0.000949 µM) of the same molecule?
Its viability, T/C is 13.1%.

And the viability, T/C (second compound 1 µM, first compound 0.003 µM)?
Its viability, T/C is 13.5%.

And the viability, T/C (second compound 1 µM, first compound 0.00949 µM)?
The viability, T/C was 12.9%.

And the viability, T/C (second compound 1 µM, first compound 0.03 µM)?
Its viability, T/C is 9.98%.

And the viability, T/C (second compound 1 µM, first compound 0.0949 µM)?
Its viability, T/C is 8.33%.

And the viability, T/C (second compound 1 µM, first compound 0.3 µM)?
Its viability, T/C is 4.38%.

Which IC50 (second compound 0.00316 µM) does the source give for `Nc1ccn(C2OC(CO)C(O)C2(F)F)c(=O)n1` (centres undefined) + C=CC(=O)N1CCN(c2nc(OCC3CCCN3C)nc3c(F)c(-c4nc(N)cc(C)c4C(F)(F)F)c(Cl)cc23)C(C)C1 here?
The IC50 was < 3.16 nM.

And the IC50 (second compound 0.01 µM)?
The IC50 was < 3.16 nM.

What about the IC50 (second compound 0.0316 µM) of the same molecule?
The IC50 was < 3.16 nM.

What about the IC50 (second compound 0.1 µM) of the same molecule?
The IC50 was < 3.16 nM.

What about the IC50 (second compound 0.316 µM) of the same molecule?
Its IC50 is < 3.16 nM.

And the IC50 (second compound 1 µM)?
The IC50 was < 3.16 nM.

What about the viability, T/C (second compound 0.00316 µM, first compound 0.00316 µM) of the same molecule?
Its viability, T/C is 18.4%.

What about the viability, T/C (second compound 0.00316 µM, first compound 0.01 µM) of the same molecule?
Its viability, T/C is 16.4%.

And the viability, T/C (second compound 0.00316 µM, first compound 0.0316 µM)?
Its viability, T/C is 14.8%.

What about the viability, T/C (second compound 0.00316 µM, first compound 0.1 µM) of the same molecule?
Its viability, T/C is 16.6%.

What about the viability, T/C (second compound 0.00316 µM, first compound 0.316 µM) of the same molecule?
Its viability, T/C is 15.9%.

And the viability, T/C (second compound 0.00316 µM, first compound 1 µM)?
Its viability, T/C is 15.8%.

What about the viability, T/C (second compound 0.01 µM, first compound 0.00316 µM) of the same molecule?
Its viability, T/C is 16.5%.

And the viability, T/C (second compound 0.01 µM, first compound 0.01 µM)?
Its viability, T/C is 13.8%.

And the viability, T/C (second compound 0.01 µM, first compound 0.0316 µM)?
Its viability, T/C is 13.9%.

And the viability, T/C (second compound 0.01 µM, first compound 0.1 µM)?
The viability, T/C was 14.3%.

What about the viability, T/C (second compound 0.01 µM, first compound 0.316 µM) of the same molecule?
The viability, T/C was 14.3%.

And the viability, T/C (second compound 0.01 µM, first compound 1 µM)?
The viability, T/C was 14.9%.

And the viability, T/C (second compound 0.0316 µM, first compound 0.00316 µM)?
The viability, T/C was 15%.

What about the viability, T/C (second compound 0.0316 µM, first compound 0.01 µM) of the same molecule?
Its viability, T/C is 14.2%.

And the viability, T/C (second compound 0.0316 µM, first compound 0.0316 µM)?
The viability, T/C was 12.5%.

And the viability, T/C (second compound 0.0316 µM, first compound 0.1 µM)?
The viability, T/C was 14.5%.

And the viability, T/C (second compound 0.0316 µM, first compound 0.316 µM)?
The viability, T/C was 15.3%.

What about the viability, T/C (second compound 0.0316 µM, first compound 1 µM) of the same molecule?
Its viability, T/C is 12.8%.

And the viability, T/C (second compound 0.1 µM, first compound 0.00316 µM)?
Its viability, T/C is 14.2%.

What about the viability, T/C (second compound 0.1 µM, first compound 0.01 µM) of the same molecule?
Its viability, T/C is 13.2%.

What about the viability, T/C (second compound 0.1 µM, first compound 0.0316 µM) of the same molecule?
The viability, T/C was 14.2%.

What about the viability, T/C (second compound 0.1 µM, first compound 0.1 µM) of the same molecule?
The viability, T/C was 11.5%.

What about the viability, T/C (second compound 0.1 µM, first compound 0.316 µM) of the same molecule?
Its viability, T/C is 12.9%.

What about the viability, T/C (second compound 0.1 µM, first compound 1 µM) of the same molecule?
The viability, T/C was 14%.

And the viability, T/C (second compound 0.316 µM, first compound 0.00316 µM)?
Its viability, T/C is 13.4%.

What about the viability, T/C (second compound 0.316 µM, first compound 0.01 µM) of the same molecule?
The viability, T/C was 13.8%.

And the viability, T/C (second compound 0.316 µM, first compound 0.0316 µM)?
The viability, T/C was 11.6%.

And the viability, T/C (second compound 0.316 µM, first compound 0.1 µM)?
Its viability, T/C is 12.6%.

What about the viability, T/C (second compound 0.316 µM, first compound 0.316 µM) of the same molecule?
The viability, T/C was 14.7%.

And the viability, T/C (second compound 0.316 µM, first compound 1 µM)?
Its viability, T/C is 11.6%.

And the viability, T/C (second compound 1 µM, first compound 0.00316 µM)?
Its viability, T/C is 14.1%.

What about the viability, T/C (second compound 1 µM, first compound 0.01 µM) of the same molecule?
The viability, T/C was 16.4%.

What about the viability, T/C (second compound 1 µM, first compound 0.0316 µM) of the same molecule?
The viability, T/C was 14.7%.

What about the viability, T/C (second compound 1 µM, first compound 0.1 µM) of the same molecule?
Its viability, T/C is 13.7%.

What about the viability, T/C (second compound 1 µM, first compound 0.316 µM) of the same molecule?
Its viability, T/C is 14.2%.

And the viability, T/C (second compound 1 µM, first compound 1 µM)?
Its viability, T/C is 14.3%.
